From US20190374533A1, “COMPOUNDS AND METHODS FOR INHIBITING NHE-MEDIATED ANTIPORT IN THE TREATMENT OF DISORDERS ASSOCIATED WITH FLUID RETENTION OR SALT OVERLOAD AND GASTROINTESTINAL TRACT DISORDERS” (Ardelyx, Inc., priority 2008, published 2019)

Tested on: not listed separately
Assay: Parallel artificial membrane permeability assay (PAMPA)
Settings: pH 7.4

Point of comparison: `NC(N)=Nc1nc(-c2cccc(N3CCN(CCCC(=O)O)CC3)c2)c2cc(Cl)ccc2n1` [Example 70, 4-(4-(3-(6-chloro-2-(diaminomethyleneamino)quinazolin-4-yl)phenyl)piperazin-1-yl)butanoic acid], Papp A→B at 3 h, 20 uM 0.4 ×10⁻⁶ cm/s. Against it:
- C/C(=C\c1cc(F)c(Oc2ccc(S(=O)(=O)NC(=O)NCCN(C)C)cc2)c(F)c1)C(=O)N=C(N)N [Example 75, (E)-N-(diaminomethylene)-3-(4 (4-(N-(2-(dimethylamino)ethylcarbamoyl)sulfamoyl)phenoxy)-3,5-difluorophenyl)-2-methylacrylamide] — the same, 0.4 ×10⁻⁶ cm/s
- CN1Cc2c(Cl)cc(Cl)cc2C(c2ccc(NC(=O)NCP(=O)(O)O)cc2)C1 (stereo not drawn) [Example 38, (3-(4-(6,8-dichloro-2-methyl-1,2,3,4-tetrahydroisoquinolin-4-yl)phenyl)ureido)methylphosphonic acid] — 4-fold lower, 0.1 ×10⁻⁶ cm/s
- CN1Cc2c(Cl)cc(Cl)cc2C(c2ccc(S(=O)(=O)NCCN(CCNS(=O)(=O)c3ccc(C4CN(C)Cc5c(Cl)cc(Cl)cc54)cc3)CCNS(=O)(=O)c3ccc(C4CN(C)Cc5c(Cl)cc(Cl)cc54)cc3)cc2)C1 (stereo not drawn) [Example 24, N,N′,N″-(2,2′,2″-nitrilotris(ethane-2,1-diyl))tris(4-(6,8-dichloro-2-methyl-1,2,3,4-tetrahydroisoquinolin-4-yl)benzenesulfonamide)] — 13-fold lower, 0.03 ×10⁻⁶ cm/s
- COCCNC(=O)NS(=O)(=O)c1ccc(Oc2c(F)cc(/C=C(\C)C(=O)N=C(N)N)cc2F)cc1 [Example 58, (E)-N-(diaminomethylene)-3-(3,5-difluoro-4-(4-(N-(2-methoxyethylcarbamoyl)sulfamoyl)phenoxy)phenyl)-2-methylacrylamide] — 2-fold lower, 0.2 ×10⁻⁶ cm/s
- C/C(=C\c1cc(F)c(Oc2ccc(S(=O)(=O)NCCOCCOCCOCCNS(=O)(=O)c3ccc(Oc4c(F)cc(/C=C(\C)C(=O)N=C(N)N)cc4F)cc3)cc2)c(F)c1)C(=O)N=C(N)N [Example 44, N,N′-(2,2′-(2,2′-oxybis(ethane-2,1-diyl)bis(oxy))bis(ethane-2,1-diyl))bis[(E)-N-(diaminomethylene)-3-(3,5-difluoro-4-(4-sulfamoylphenoxy)phenyl)-2-methylacrylamide]] — 4-fold lower, 0.1 ×10⁻⁶ cm/s
- CN1Cc2c(Cl)cc(Cl)cc2C(c2ccc(NC(=O)N[C@@H](CC(=O)O)C(=O)O)cc2)C1 (stereo partly drawn) [Example 34, (2S)-2-(3-(4-(6,8-dichloro-2-methyl-1,2,3,4-tetrahydroisoquinolin-4-yl)phenyl)ureido)succinic acid] — 2-fold lower, 0.2 ×10⁻⁶ cm/s
- C/C(=C\c1cc(F)c(Oc2ccc(S(=O)(=O)NCCOCCOCCOCCn3cc(CO)nn3)cc2)c(F)c1)C(=O)N=C(N)N [Example 48, (E)-N-(diaminomethylene)-3-(3,5-difluoro-4-(4-(N-(2-(2-(2-(2-(4-(hydroxymethyl)-1H-1,2,3-triazol-1-yl)ethoxy)ethoxy)ethoxy)ethyl)sulfamoyl)phenoxy)phenyl)-2-methylacrylamide] — 2.2-fold higher, 0.9 ×10⁻⁶ cm/s
- CN1Cc2c(Cl)cc(Cl)cc2C(c2ccc(NC(=O)N[C@@H](CCC(=O)O)C(=O)O)cc2)C1 (stereo partly drawn) [Example 36] — 2-fold lower, 0.2 ×10⁻⁶ cm/s
- CN1Cc2c(Cl)cc(Cl)cc2C(c2ccc(S(=O)(=O)N(CCC(=O)O)CCC(=O)O)cc2)C1 (stereo not drawn) [Example 15, 3,3′-(4-(6,8-dichloro-2-methyl-1,2,3,4-tetrahydroisoquinolin-4-yl)phenylsulfonylazanediyl)dipropanoic acid] — 8-fold lower, 0.05 ×10⁻⁶ cm/s
- CN1Cc2c(Cl)cc(Cl)cc2C(c2cccc(S(=O)(=O)Nc3ccc(CP(=O)(O)O)cc3)c2)C1 (stereo not drawn) [Example 3, 4-(3-(6,8-dichloro-2-methyl-1,2,3,4-tetrahydroisoquinolin-4-yl)phenylsulfonamido)benzylphosphonic acid] — 2-fold higher, 0.8 ×10⁻⁶ cm/s
- CN1Cc2c(Cl)cc(Cl)cc2C(c2cccc(S(=O)(=O)NCCCS(=O)(=O)O)c2)C1 (stereo not drawn) [Example 7, 3-(3-(6,8-dichloro-2-methyl-1,2,3,4-tetrahydroisoquinolin-4-yl)phenylsulfonamido)propane-1-sulfonic acid] — within 1.5-fold, 0.5 ×10⁻⁶ cm/s
- NC(N)=Nc1nc(-c2ccc(N3CCN(CCCC(=O)O)CC3)cc2)c2cc(Cl)ccc2n1 [Example 73, 4-(4-(4-(6-chloro-2-(diaminomethyleneamino)quinazolin-4-yl)phenyl)piperazin-1-yl)butanoic acid] — within 1.5-fold, 0.27 ×10⁻⁶ cm/s
- CN1Cc2c(Cl)cc(Cl)cc2C(c2ccc(S(=O)(=O)N(CC(=O)O)CP(=O)(O)O)cc2)C1 (stereo not drawn) [Example 72, 2-(4-(6,8-dichloro-2-methyl-1,2,3,4-tetrahydroisoquinolin-4-yl)-N-(phosphonomethyl)phenylsulfonamido)acetic acid] — 2-fold lower, 0.2 ×10⁻⁶ cm/s
- C/C(=C\c1cc(F)c(Oc2ccc(S(=O)(=O)NCP(=O)(O)O)cc2)c(F)c1)C(=O)N=C(N)N [Example 56, (E)-(4-(4-(3-(diaminomethyleneamino)-2-methyl-3-oxoprop-1-enyl)-2,6-difluorophenoxy)phenylsulfonamido)methylphosphonic acid] — within 1.5-fold, 0.5 ×10⁻⁶ cm/s
- C/C(=C\c1cc(F)c(Oc2ccc(S(=O)(=O)NC(CC(=O)O)C(=O)O)cc2)c(F)c1)C(=O)N=C(N)N (stereo not drawn) [Example 59, (E)-2-(4-(4-(3-(diaminomethyleneamino)-2-methyl-3-oxoprop-1-enyl)-2,6-difluorophenoxy)phenylsulfonamido)succinic acid] — 4-fold lower, 0.1 ×10⁻⁶ cm/s
- CN1Cc2c(Cl)cc(Cl)cc2C(c2cccc(S(=O)(=O)NCCN(CCNS(=O)(=O)c3cccc(C4CN(C)Cc5c(Cl)cc(Cl)cc54)c3)CCNS(=O)(=O)c3cccc(C4CN(C)Cc5c(Cl)cc(Cl)cc54)c3)c2)C1 (stereo not drawn) [Example 16, N,N′,N″-(2,2′,2″-nitrilotris(ethane-2,1-diyl))tris(3-(6,8-dichloro-2-methyl-1,2,3,4-tetrahydroisoquinolin-4-yl)benzenesulfonamide)] — lower, < 0.02 ×10⁻⁶ cm/s
- CN1Cc2c(Cl)cc(Cl)cc2C(c2ccc(S(=O)(=O)NCCCCCCCCCCCCNS(=O)(=O)c3ccc(C4CN(C)Cc5c(Cl)cc(Cl)cc54)cc3)cc2)C1 (stereo not drawn) [Example 23, N,N′-(dodecane-1,12-diyl)bis(4-(6,8-dichloro-2-methyl-1,2,3,4-tetrahydroisoquinolin-4-yl)benzenesulfonamide)] — lower, < 0.04 ×10⁻⁶ cm/s
- CN1Cc2c(Cl)cc(Cl)cc2C(c2ccc(S(=O)(=O)Nc3ccc(P(=O)(O)O)cc3)cc2)C1 (stereo not drawn) [Example 76, 4-(4-(6,8-dichloro-2-methyl-1,2,3,4-tetrahydroisoquinolin-4-yl)phenylsulfonamido)phenylphosphonic acid] — 2-fold lower, 0.2 ×10⁻⁶ cm/s
- CN1Cc2c(Cl)cc(Cl)cc2C(c2cccc(NC(=O)N[C@@H](CC(=O)O)C(=O)O)c2)C1 (stereo partly drawn) [Example 35, (2S)-2-(3-(3-(6,8-dichloro-2-methyl-1,2,3,4-tetrahydroisoquinolin-4-yl)phenyl)ureido)succinic acid] — 2.4-fold lower, 0.17 ×10⁻⁶ cm/s
- CN1Cc2c(Cl)cc(Cl)cc2C(c2cccc(S(=O)(=O)N(CC(=O)O)CP(=O)(O)O)c2)C1 (stereo not drawn) [Example 8, 2-(3-(6,8-dichloro-2-methyl-1,2,3,4-tetrahydroisoquinolin-4-yl)-N-(phosphonomethyl)phenylsulfonamido)acetic acid] — 2-fold lower, 0.2 ×10⁻⁶ cm/s
- CN1Cc2c(Cl)cc(Cl)cc2C(c2ccc(S(=O)(=O)NCc3ccc(CP(=O)(O)O)cc3)cc2)C1 (stereo not drawn) [Example 14, (4-((4-(6,8-dichloro-2-methyl-1,2,3,4-tetrahydroisoquinolin-4-yl)phenylsulfonamido)methyl)phenyl) methylphosphonic acid] — the same, 0.4 ×10⁻⁶ cm/s
- C/C(=C\c1cc(F)c(Oc2ccc(S(=O)(=O)N(CC(=O)O)CP(=O)(O)O)cc2)c(F)c1)C(=O)N=C(N)N [Example 57, (E)-2-(4-(4-(3-(diaminomethyleneamino)-2-methyl-3-oxoprop-1-enyl)-2,6-difluorophenoxy)-N-(phosphonomethyl)phenylsulfonamido)acetic acid] — 4.1-fold higher, 1.65 ×10⁻⁶ cm/s
- CN1Cc2c(Cl)cc(Cl)cc2C(c2ccc(S(=O)(=O)Nc3ccc(CP(=O)(O)O)cc3)cc2)C1 (stereo not drawn) [Example 13, (4-(4-(6,8-dichloro-2-methyl-1,2,3,4-tetrahydroisoquinolin-4-yl)phenylsulfonamido)phenyl)methylphosphonic acid] — within 1.5-fold, 0.3 ×10⁻⁶ cm/s
- CN1Cc2c(Cl)cc(Cl)cc2C(c2cccc(NC(=O)N[C@@H](CCC(=O)O)C(=O)O)c2)C1 (stereo partly drawn) [Example 37, (2S)-2-(3-(3-(6,8-dichloro-2-methyl-1,2,3,4-tetrahydroisoquinolin-4-yl)phenyl)ureido)pentanedioic acid] — 4-fold lower, 0.1 ×10⁻⁶ cm/s
- CCNC(=O)NS(=O)(=O)c1ccc(Oc2c(F)cc(/C=C(\C)C(=O)N=C(N)N)cc2F)cc1 [Example 74] — within 1.5-fold, 0.45 ×10⁻⁶ cm/s
- C/C(=C\c1cc(F)c(Oc2ccc(S(=O)(=O)NCCCS(=O)(=O)O)cc2)c(F)c1)C(=O)N=C(N)N [Example 71, (E)-3-(4-(4-(3-(diaminomethyleneamino)-2-methyl-3-oxoprop-1-enyl)-2,6-difluorophenoxy)phenylsulfonamido)propane-1-sulfonic acid] — within 1.5-fold, 0.45 ×10⁻⁶ cm/s

Tested on: not listed separately
Assay: Determination of compound Cmax and AUC
Type: in vivo
Settings: rat; Sprague-Dawley rats, oral gavage, serum 0.5-4 h; actual oral dose (mg/kg) given
Experimental: Sprague-Dawley rats were orally gavaged with test article (2.5 mg/kg) and serum was collected at 0.5, 1, 2 and 4 h. Serum samples were treated with acetonitrile, precipitated proteins removed by centrifugation and supernatants analyzed by LC/MS/MS and compared against a standard curve to determine compound concentration. All compounds were orally dosed at the dosage shown, and pharmacokinetic parameters determined as described in the text.

`CN1Cc2c(Cl)cc(Cl)cc2C(c2cccc(S(=O)(=O)NCCOCCOCCOCCNC(=O)NCCCCNC(=O)NCCOCCOCCOCCNS(=O)(=O)c3cccc(C4CN(C)Cc5c(Cl)cc(Cl)cc54)c3)c2)C1` (stereo not drawn) [Example 208, N,N′-(13,20-dioxo-3,6,9,24,27,30-hexaoxa-12,14,19,21-tetraazadotriacontane-1,32-diyl)bis(3-(6,8-dichloro-2-methyl-1,2,3,4-tetrahydroisoquinolin-4-yl)benzenesulfonamide)] showed an AUC of less than 5 ng·h/mL.

For `CN1Cc2c(Cl)cc(Cl)cc2C(c2cccc(S(=O)(=O)NCCOCCOCCOCCNC(=O)NCCCCNC(=O)NCCOCCOCCOCCNS(=O)(=O)c3cccc(C4CN(C)Cc5c(Cl)cc(Cl)cc54)c3)c2)C1` (stereo not drawn) [Example 208, N,N′-(13,20-dioxo-3,6,9,24,27,30-hexaoxa-12,14,19,21-tetraazadotriacontane-1,32-diyl)bis(3-(6,8-dichloro-2-methyl-1,2,3,4-tetrahydroisoquinolin-4-yl)benzenesulfonamide)], the Cmax was less than 5 ng/mL.

Molecular target: T1, rat NHE-3 (Rattus norvegicus, UniProt P26433)
T1 construct: expressed in transfected cells; host or cells: Opossum kidney (OK) cells (ATCC), electroporated
Assay: Cell-based assay of NHE-3 activity (Pharmacological Test Example 1)
Settings: OK cells expressing rat NHE-3; 0-30 uM test compound, 5 uM EIPA
In short: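 Na+-dependent H+ exchange tracked with the pH-sensitive dye BCECF in opossum kidney cells transiently expressing rat NHE-3. Intracellular acidification by NH4Cl prepulse, then 10 min in ammonium- and Na+-free HEPES, pH 7.4, room temperature. Initial rates averaged over 3-6 replicates give pIC50.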

T1 sequence (P26433 29-831): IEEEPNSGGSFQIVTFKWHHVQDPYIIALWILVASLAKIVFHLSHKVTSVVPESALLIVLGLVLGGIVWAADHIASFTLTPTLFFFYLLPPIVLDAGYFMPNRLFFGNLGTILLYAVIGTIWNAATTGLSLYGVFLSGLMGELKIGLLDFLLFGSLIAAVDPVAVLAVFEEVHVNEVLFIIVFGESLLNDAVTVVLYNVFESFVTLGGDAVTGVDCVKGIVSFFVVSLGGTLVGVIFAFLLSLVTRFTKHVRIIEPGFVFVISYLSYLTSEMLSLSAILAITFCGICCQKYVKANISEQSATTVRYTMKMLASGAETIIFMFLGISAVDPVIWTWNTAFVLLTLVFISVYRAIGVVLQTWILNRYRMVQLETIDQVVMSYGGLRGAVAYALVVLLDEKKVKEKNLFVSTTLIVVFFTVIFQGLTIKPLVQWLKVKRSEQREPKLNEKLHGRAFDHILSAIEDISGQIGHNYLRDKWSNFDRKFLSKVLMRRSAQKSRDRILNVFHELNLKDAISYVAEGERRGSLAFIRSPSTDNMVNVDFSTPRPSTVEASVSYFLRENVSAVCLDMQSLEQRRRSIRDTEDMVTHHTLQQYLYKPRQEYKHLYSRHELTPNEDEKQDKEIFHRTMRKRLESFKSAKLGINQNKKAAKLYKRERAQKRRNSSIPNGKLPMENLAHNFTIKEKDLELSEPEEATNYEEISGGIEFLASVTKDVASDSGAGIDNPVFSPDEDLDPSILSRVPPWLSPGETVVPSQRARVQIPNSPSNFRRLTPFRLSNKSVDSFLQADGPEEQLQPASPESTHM

With `CN1Cc2c(Cl)cc(Cl)cc2C(c2cccc(S(=O)(=O)NCCOCCOCCOCCNC(=O)NCCCCNC(=O)NCCOCCOCCOCCNS(=O)(=O)c3cccc(C4CN(C)Cc5c(Cl)cc(Cl)cc54)c3)c2)C1` (stereo not drawn) [Example 208, N,N′-(13,20-dioxo-3,6,9,24,27,30-hexaoxa-12,14,19,21-tetraazadotriacontane-1,32-diyl)bis(3-(6,8-dichloro-2-methyl-1,2,3,4-tetrahydroisoquinolin-4-yl)benzenesulfonamide)] the “rat NHE-3 Average pIC50” value was greater than 7.
